Measurements taken from patent US20230014907A1, “INHIBITORS OF APOL1 AND METHODS OF USING SAME” (Vertex Pharmaceuticals Incorporated, priority 2020, published 2023).

biological target: T1, G1 APOL1 (Homo sapiens, UniProt O14791, I384M/S342G); assay: Acute APOL1 Thallium Assay with Inducible Stable Clones of HEK 293 Cells; assay type: cell-based; conditions: HEK 293 inducible stable clones, G1 APOL1; read-out: Thallium Assay (IC50)
T1 construct: expressed in transfected cells
T1 sequence (O14791 28-398 S342G/I384M): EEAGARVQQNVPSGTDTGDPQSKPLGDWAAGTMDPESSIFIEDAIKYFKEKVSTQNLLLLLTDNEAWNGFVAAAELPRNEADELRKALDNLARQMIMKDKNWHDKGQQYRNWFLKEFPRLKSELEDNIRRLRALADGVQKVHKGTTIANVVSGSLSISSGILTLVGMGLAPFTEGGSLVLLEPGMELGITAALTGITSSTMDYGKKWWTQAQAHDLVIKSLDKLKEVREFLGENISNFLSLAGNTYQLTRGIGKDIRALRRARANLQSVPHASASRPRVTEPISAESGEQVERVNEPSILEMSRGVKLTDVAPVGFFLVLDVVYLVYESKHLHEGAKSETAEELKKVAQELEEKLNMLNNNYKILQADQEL
In short: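 HEK293 T-Rex cells with a stable tetracycline-inducible G1 APOL1 construct (clone DC3.25) were induced with tetracycline at plating, 26000 cells per well, then incubated at 37° C. They were loaded with an AM-ester thallium-sensitive dye and stimulated with Tl+. The fluorescence rise measured Tl+ influx through APOL1 pores.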

Structure (SMILES) | IC50 [µM]
N#Cc1ccc(-c2[nH]c3c(F)cc(F)cc3c2/C=C/C(=O)N[C@H]2CCNC2=O)cc1 [Compound 522, (E)-3-[2-(4-cyanophenyl)-5,7-difluoro-1H-indol-3-yl]-N-[(3S)-2-oxopyrrolidin-3-yl]prop-2-enamide] | > 1
O=C(NCCc1c(-c2ccc(F)cc2)[nH]c2c(F)cc(F)cc12)NCC1(O)CCCC1 [Compound 266] | > 1
O=C(CCCc1c(-c2ccc(F)cc2)[nH]c2c(F)cc(F)cc12)N[C@@H]1CCNC1=O [Compound 247] | > 1
Cc1cc(F)c2[nH]c(-c3ccc(F)cc3)c(CCC(=O)N[C@@H](CO)C(F)(F)F)c2c1 [Compound 214] | < 0.25
O=C(CCc1c(-c2ccc(F)cc2)[nH]c2c(F)cc(Cl)cc12)NC1(CO)CCC1 [Compound 194, 3-[5-chloro-7-fluoro-2-(4-fluorophenyl)-1H-indol-3-yl]-N-[1-(hydroxymethyl)cyclobutyl]propanamide] | 0.25 to 1
O=C(CCc1c(-c2ccc(F)cc2)[nH]c2c(F)cc(Cl)cc12)NCCCO [Compound 209] | > 1
O=C(NCCc1c(-c2ccc(F)cc2)[nH]c2c(F)cc(F)cc12)c1cncc(F)c1 [Compound 377] | > 1
O=C1NC(=O)C(CCS(=O)(=O)NCCc2c(-c3ccc(F)cc3)[nH]c3c(F)cc(F)cc23)N1 (centres unmarked) [Compound 420, N-(2-(5,7-difluoro-2-(4-fluorophenyl)-1H-indol-3-yl)ethyl)-2-(2,5-dioxoimidazolidin-4-yl)ethane-1-sulfonamide] | > 1
Cc1cc(F)c2[nH]c(-c3ccc(F)cc3)c(CCC(=O)NC(CO)(CO)CO)c2c1 [Compound 217] | > 1
CCOCCNC(=O)OCCc1c(-c2ccc(F)cc2)[nH]c2c(F)cc(F)cc12 [Compound 455] | 0.25 to 1
Cc1occc1C(=O)NCCc1c(-c2ccc(F)cc2)[nH]c2c(F)cc(F)cc12 [Compound 394] | > 1
NC(=O)CCC(=O)NCCc1c(-c2ccc(F)cc2)[nH]c2c(F)cc(F)cc12 [Compound 343] | > 1
O=C(CCN1CCCC1=O)NCCc1c(-c2ccc(F)cc2)[nH]c2c(F)cc(F)cc12 [Compound 370] | > 1
NC(=O)CC(=O)NCCc1c(-c2ccc(F)cc2)[nH]c2c(F)cc(F)cc12 [Compound 358] | > 1
Cc1cc(F)c2[nH]c(-c3ccc(F)cc3)c(CCC(=O)NC3(CO)CCC3)c2c1 [Compound 216] | 0.25 to 1
C=CC(=O)NCCc1c(-c2ccc(F)cc2)[nH]c2c(F)cc(F)cc12 [Compound 417] | > 1
O=C(NCCc1c(-c2ccc(F)cc2)[nH]c2c(F)cc(F)cc12)NCCS(=O)(=O)O [Compound 263] | > 1
C[C@@H](O)CNC(=O)OCCc1c(-c2ccc(F)cc2)[nH]c2c(F)cc(F)cc12 [Compound 450] | < 0.25

Structure (SMILES) | IC50 [µM]
Cc1ccn(CC(=O)NCCc2c(-c3ccc(F)cc3)[nH]c3c(F)cc(F)cc23)n1 [Compound 378] | > 1
NC(=O)[C@@H](CO)NC(=O)CCc1c(-c2ccc(F)cc2)[nH]c2c(F)cc(Cl)cc12 [Compound 202] | > 1
Cc1occc1CNC(=O)NCCc1c(-c2ccc(F)cc2)[nH]c2c(F)cc(F)cc12 [Compound 295] | > 1
CC(C)(C)OC(=O)NC(CC(N)=O)C(=O)NCCc1c(-c2ccc(F)cc2)[nH]c2c(F)cc(F)cc12 (centres unmarked) [Compound 304, tert-butyl N-[3-amino-1-[2-[5,7-difluoro-2-(4-fluorophenyl)-1H-indol-3-yl]ethylcarbamoyl]-3-oxo-propyl]carbamate] | 0.25 to 1
O=C(NCCc1c(-c2ccc(F)cc2)[nH]c2c(F)cc(F)cc12)C1CC(O)C1 (centres unmarked) [Compound 348] | > 1
CC(CC(=O)NC(CO)C(F)(F)F)c1c(-c2ccc(F)cc2)[nH]c2c(F)cc(F)cc12 (single isomer, unassigned) [Compound 514] | > 1
O=C(NCCc1c(-c2ccc(F)cc2)[nH]c2c(F)cc(F)cc12)c1cnc(C(F)(F)F)s1 [Compound 367] | > 1
O=C(CCc1c(-c2ccc(F)cc2)[nH]c2c(F)cc(F)cc12)N[C@@H](CO)C(F)F [Compound 132] | < 0.25
CC(CO)(CO)NC(=O)OCCc1c(-c2ccc(F)cc2)[nH]c2c(F)cc(F)cc12 [Compound 434, 2-[5,7-difluoro-2-(4-fluorophenyl)-1H-indol-3-yl]ethyl N-[2-hydroxy-1-(hydroxymethyl)-1-methyl-ethyl]carbamate] | < 0.25
C[C@H](CO)NC(=O)CCCc1c(-c2ccc(F)cc2)[nH]c2c(F)cc(F)cc12 [Compound 241] | 0.25 to 1
Cn1cc(C(=O)NCCc2c(-c3ccc(F)cc3)[nH]c3c(F)cc(F)cc23)cn1 [Compound 391] | > 1
O=C1NC[C@@H](O)[C@@H]1NCCc1c(-c2ccc(F)cc2)[nH]c2c(F)cc(F)cc12 [Compound 427, (3S,4R)-3-((2-(5,7-difluoro-2-(4-fluorophenyl)-1H-indol-3-yl)ethyl)amino)-4-hydroxypyrrolidin-2-one] | > 1
O=C1N[C@@H](C(=O)NCCc2c(-c3ccc(F)cc3)[nH]c3c(F)cc(F)cc23)CO1 [Compound 306, (4R)—N-[2-[5,7-difluoro-2-(4-fluorophenyl)-1H-indol-3-yl]ethyl]-2-oxo-oxazolidine-4-carboxamide] | > 1
O=C(CCCc1c(-c2ccc(F)cc2)[nH]c2c(F)cc(F)cc12)N[C@H]1CCNC1=O [Compound 249] | > 1
O=C1N[C@H](C(=O)NCCc2c(-c3ccc(F)cc3)[nH]c3c(F)cc(F)cc23)CS1 [Compound 322] | > 1
COc1ccc2[nH]c(-c3ccc(F)cc3)c(CCNC(=O)OC(C)(C)C)c2c1 [Compound 430, tert-butyl N-[2-[2-(4-fluorophenyl)-5-methoxy-1H-indol-3-yl]ethyl]carbamate] | > 1
O=C1CC(NC(=O)CCCc2c(-c3ccc(F)cc3)[nH]c3c(F)cc(F)cc23)CN1 (centres unmarked) [Compound 253] | > 1
